The subject of data set [1] is Huh-7-HCV subgenomic replicon cells. The experiment in a line: In vitro anabolism of Compound 9, intracellular triphosphate in replicon cells. It is filed as in vitro ADME, human. Particulars: Huh-7 replicon cells; 24 hours incubation with Compound 9 at 10 μM. The method, then: (§1) In vitro anabolism of Compound 9 and the intracellular accumulation of its triphosphate (Compound 25) were studied in adherent Huh-7 and plated primary human hepatocytes. The Huh-7 human hepatoma liver cells (JCRB0403 http://cellbank.nibio.go.jp/) are maintained in DMEM containing 10% fetal bovine serum (FBS). Huh-7 cell clones carrying a HCV subgenomic replicon (Lohmann et al., 1999. Science 285: 110-113) are maintained in DMEM supplemented with 10% FBS and 0.25 mg/ml G418. The cell lines are grown at 37° C. in a 5% CO2-95% air atmosphere. Plated primary human hepatocytes (6-well Collagen/No Overlay) were purchased from Cellz Direct (NC, USA) and maintained in InVitroGro Medium (Celsis, In Vitro Technologies, MD USA) under the same incubation conditions.
(§2) For intracellular anabolism studies, Huh-7 cells are trypsinized, harvested, re-suspended in DMEM supplemented with 10% FBS, counted and seeded at a density of 0.7×10^6 cells per well in a six-well plate and incubated for a period of 24 hr at 37° C. in 5% CO^2 atmosphere. Media is removed and replaced with fresh DMEM+10% FBS containing 10 μM Compound 9 for a period of 24 hr at 37° C. The cell monolayer is then quickly washed three times with drug-free medium to remove extracellular Compound 9 and each well is incubated with fresh DMEM+10% FBS for a specified time period (i.e. 6-wells at 0, 2, 4, 8, 24 and 48 hr). At the end of the incubation period, the medium is aspirated from the well and the cell monolayer is washed with cold phosphate buffered saline, pH 7.4. The washed cell monolayer is treated with 1.0 ml ice-cold 70% methanol:water, scraped and harvested into a centrifuge tube and then sonicated for 1 min at 4° C. […]
(§3) Sample Analysis for intracellular nucleoside metabolites: The cell lysate samples are thawed on ice, and subjected to two freeze/thaw cycles in a dry ice/acetone bath. […] The respective metabolites are identified and quantified by comparing their chromatographic profiles and peak area response with those of authentic standards.
A general note: Replicon systems follow genome replication, usually without infectious particles.

Assay in data set [2]: as above
Particulars: human, Huh-7 cells carrying an HCV subgenomic replicon, Huh-7 replicon cells. The class given is in vitro ADME, human. The method, then: as §1, §2, §3

Data set [3] deals with T1, HCV NS5bΔ55 (genotype 1b) (Hepatitis C virus genotype 1b, UniProt P26663).
T1 construct: 100 nM HCV NS5bΔ55 (genotype 1b) in a 50 μl reaction mixture
T1 sequence (P26663 2420-2955, stated change not applied): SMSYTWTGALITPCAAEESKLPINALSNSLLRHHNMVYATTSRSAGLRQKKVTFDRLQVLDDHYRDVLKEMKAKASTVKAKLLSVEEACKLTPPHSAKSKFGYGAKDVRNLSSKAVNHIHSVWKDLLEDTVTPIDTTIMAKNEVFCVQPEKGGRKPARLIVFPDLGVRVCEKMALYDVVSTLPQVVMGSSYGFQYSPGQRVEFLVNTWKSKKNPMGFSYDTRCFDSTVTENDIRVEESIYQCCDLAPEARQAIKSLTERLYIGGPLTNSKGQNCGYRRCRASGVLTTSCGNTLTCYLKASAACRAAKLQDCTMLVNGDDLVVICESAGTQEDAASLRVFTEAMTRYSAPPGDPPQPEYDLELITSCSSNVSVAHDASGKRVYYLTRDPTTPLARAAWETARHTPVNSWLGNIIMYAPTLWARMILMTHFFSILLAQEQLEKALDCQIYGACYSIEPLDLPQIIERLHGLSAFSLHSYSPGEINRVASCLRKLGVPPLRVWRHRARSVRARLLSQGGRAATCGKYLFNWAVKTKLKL
The experiment in a line: HCV Polymerase Inhibition Assay. It is filed as biochemical. How it is done:
Poly r(U) RNA template (Sigma) is employed for the HCV NS5b polymerase inhibition assay using a NS5bΔ55 (genotype 1b) purified enzyme. The kinetic constant, Km, is determined for the Poly r(U) template and ATP using a non-linear, least squares fit of initial rates as a function of substrate concentration assuming Michaelis-Menten kinetics.
Standard RdRp assays consist of 20 μg/mL Poly r(U) RNA template and 100 nM HCV NS5bΔ55 (genotype 1b) in a 50 μl reaction mixture containing 20 mM Tris-HCl, 5 mM MgCl2, 5 mM MnCl2, 3 mM DTT, 72 μM ATP, and 0.019 μM [α-^33P]ATP. Elongation reactions are initiated by the addition of ATP, and proceed for 60 min at 25° C. Reactions are quenched by the addition of 0.2 M EDTA, and product formation is collected by filtration through Multiscreen plates (Millipore). Quantification of product formation was performed using TopCount (Perkin Elmer). The inhibitor concentration at which the enzyme catalysed rate is reduced by half (IC50) is determined using a computer program for curve fitting.

Data set [4] has as its target T2, HCV NS5b polymerase (Hepatitis C virus genotype 1b, UniProt P26663).
T2 construct: 100 nM HCV NS5bΔ55 (genotype 1b) in a 50 μl reaction mixture
The experiment in a line: HCV NS5b Polymerase Ki Determination Assay. The class given is biochemical. How it is done:
A modified method of the NS5b Polymerase inhibition assay was used to determine the Ki and the mode of action for NS5b inhibitor compounds. The enzyme and template were fixed at 100 nM and 20 µg/mL and all other reaction conditions were identical to the NS5b polymerase inhibition assay. The velocity of NS5b reactions were monitored at different ATP and inhibitor concentrations. The ATP concentration ranged from 0.1 μM to 1000 μM, and the concentration of the inhibitor ranged from 0.003 fold to 7 fold of the IC50 value. Velocities obtained at each ATP and inhibitor concentration were analysed using Graph Pad Prism to identify the mode of inhibition and Ki for inhibitor compounds. Under these conditions, the Ki for Compound 25 is 0.08 μM.

The nature of data set [5]: In vitro anabolism of Compound 9, intracellular triphosphate in primary human hepatocytes. The class given is in vitro ADME. Particulars: human, plated primary human hepatocytes, Human Hepatocytes. The method, then:
as §1
(§4) For intracellular anabolism studies, Huh-7 cells are trypsinized, harvested, re-suspended in DMEM supplemented with 10% FBS, counted and seeded at a density of 0.7×10^6 cells per well in a six-well plate and incubated for a period of 24 hr at 37° C. in 5% CO^2 atmosphere. Media is removed and replaced with fresh DMEM+10% FBS containing 10 μM Compound 9 for a period of 24 hr at 37° C. The cell monolayer is then quickly washed three times with drug-free medium to remove extracellular Compound 9 and each well is incubated with fresh DMEM+10% FBS for a specified time period (i.e. 6-wells at 0, 2, 4, 8, 24 and 48 hr). At the end of the incubation period, the medium is aspirated from the well and the cell monolayer is washed with cold phosphate buffered saline, pH 7.4. The washed cell monolayer is treated with 1.0 ml ice-cold 70% methanol:water, scraped and harvested into a centrifuge tube and then sonicated for 1 min at 4° C. The resulting cell lysate is stored overnight at −80° C. and subsequently used to extract the metabolites of Compound 9. Isolation of Compound 9 and the intracellular metabolites of Compound 9 from plated primary human hepatocytes uses similar experimental conditions, except that InVitroGro Medium is used as the cell culture medium.
(§5) Sample Analysis for intracellular nucleoside metabolites: The cell lysate samples are thawed on ice, and subjected to two freeze/thaw cycles in a dry ice/acetone bath. Cells extracts are vortexed and centrifuged at 16000 g for 5 min at 4° C. and 40 μL of supernatant is injected for analysis using a API4000 triple quadrupole system. The Shimadzu LC autosampler is set at 4° C. to minimize evaporation. Compound 9 mono-, di- and triphosphate (Compound 25) are separated using a pH gradient on a Biobasic AX, 3.0×50 mm column maintained at 40° C. […] The respective metabolites are identified and quantified by comparing their chromatographic profiles and peak area response with those of authentic standards.

Data set [6] has as its system primary human hepatocytes. The description is as above. The class given is in vitro ADME. The method, then: as §1, §4, §5
Setting [7] is: read-out: Triphosphate decay half-life, Elimination phase (β, h).
The mark [8] stands for this setting: read-out: Triphosphate decay half-life, Initial phase (α, h) (converted).

T2 sequence (P26663 2420-2955): as the sequence (P26663 2420-2955, stated change not applied) above

With `C[C@@]1(O)[C@H](O)[C@@H](COP(=O)(O)OP(=O)(O)OP(=O)(O)O)O[C@H]1c1ccc2c(N)ncnn12` [Compound 25, 4-amino-7-(2-C-methyl-β-D-ribofuranosyl)-pyrrolo[2,1-f][1,2,4]triazine 5′-triphosphate], the “Intracellular Triphosphate Concentration (pmol/million cells, 24 hr incubation)” value in data set [1] came out at 5.7 pmol/million cells; in data set [6] (Human Hepatocytes, 24 hours incubation with Compound 9 at 10 μM) it was 339 pmol/million cells. The half-life at 10 μM in data set [2] (setting [7]) was ≥ 38 h; in data set [2] (setting [8]) it was 0.59 h; in data set [5] (setting [7]) it was ≥ 38 h; in data set [5] (setting [8]), 3.4 h. The molecule further returned an IC50 in data set [3] of 370 nM. Also, the Ki in data set [4] came out at 80 nM. Also, the “intracellular triphosphate level in primary human hepatocytes relative to replicon cells” value in data set [6] (same experimental conditions, 10 μM Compound 9, 24 hours) was ~60 fold.

As a reminder, the half-life is how long it takes for the measured level to halve. As usually defined, the IC50 is the concentration at which inhibition is half-maximal. Read a high IC50 as weaker potency. One may read the Ki as the dissociation constant of the complex between target and ligand, obtained from inhibition or displacement. Read a high Ki as lower affinity.

(Values after US8415309B2, “Bicyclic nucleosides and nucleotides as therapeutic agents” (priority 2009, dated 2013).)
